Laboratory results from patent US20260345595A1, “NOVEL FLUORENE DERIVATIVE COMPOUND AND USE THEREOF” (JD BIOSCIENCE INC., priority 2022, published 2026).

System: PDHE1α S293
Test: In vitro PDH S293 phosphorylation inhibition, Western blot in HEK293 cells
Format: cell-based
Conditions: Homo sapiens, 5 hours
Experimental: HEK293 cells, which are human embryonic kidney cells, were seeded at a density of 2×10^6 in a 60 mm dish, and cultured for 24 hours. After replacing the medium with a medium comprising 0.5% FBS, the compounds prepared according to Examples 1 to 54 were treated at various concentrations. 5 hours later, the cells were scraped off and collected into a 15 ml conical tube and centrifuged at 1500 rpm for 10 minutes. The supernatant was discarded, the resultant was washed with 1×PBS, and transferred to a 1.5 mL e-tube, followed by centrifugation at 10,000 rpm for 5 minutes. The supernatant was discarded again, a lysis buffer was added, and the cells were lysed on ice for 30 minutes. The cells were vortexed every 10 minutes to completely lyse, and centrifuged again at 10,000 rpm for 15 minutes at 4 °C., and the supernatant was collected. The protein in the supernatant was quantified using BCA technique, and the sample buffer was added to 20 μg of protein and allowed to react at 70 °C. for 5 minutes. The expression of PDHE1α S232, S293, S300, and total PDHE1α proteins was detected by Western blot, and the resulting PDH S293 phosphorylation inhibition is shown in Table 6.

SMILES	inhibition at 1 µM [%]
CC(C(=O)NNc1ncc(C(F)(F)F)cc1Cl)n1cc(-c2cc(F)cc3c2-c2ccccc2C3(O)C(F)(F)F)cn1 (centres unmarked) [Compound 32, N′-(3-chloro-5-(trifluoromethyl)pyridin-2-yl)-2-(4-(2-fluoro-9-hydroxy-9-(trifluoromethyl)-9H-fluoren-4-yl)-1H-pyrazol-1-yl)propanehydrazide]	≥ 50
COc1cc(-c2cnn(C(C)C(=O)NNc3ncc(C(F)(F)F)cc3Cl)c2)c2c(c1)C(O)(C(F)(F)F)c1ccccc1-2 (centres unmarked) [Compound 33, N′-(3-chloro-5-(trifluoromethyl)pyridin-2-yl)-2-(4-(9-hydroxy-2-methoxy-9-(trifluoromethyl)-9H-fluoren-4-yl)-1H-pyrazol-1-yl)propanehydrazide]	≥ 50
